Data on 32 molecules can be found in patent US8163740B2, “6-substituted benzoxazines” (Hoffmann-La Roche Inc., priority 2008, dated 2012).

The target of series [1] is recombinant human 5-HT5A receptor (Homo sapiens, UniProt P47898). Kind of series: [3H]LSD radioligand binding assay. The method, boiled down: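 Membranes from HEK-EBNA cells transiently expressing the receptor, with ~1 nM [3H]LSD in 50 mM Tris, 1 mM EGTA, 10 mM MgCl2, 10 μM pargyline, pH 7.4, SPA bead format. Incubated 120 min RT; nonspecific binding defined with 2 μM methiothepin. 10 concentrations in duplicate; IC50 converted to Ki via Cheng-Prusoff.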

Where [2] appears, read: [3H]LSD (approximately 1 nM), membranes from HEK-EBNA cells transiently expressing 5-HT5A, Ki by Cheng-Prussoff equation, read-out: Ki.

pKi: −log10 of the molar value. Where two headings read alike, the source gives them in different places.

Chain of recombinant human 5-HT5A receptor (P47898 whole entry): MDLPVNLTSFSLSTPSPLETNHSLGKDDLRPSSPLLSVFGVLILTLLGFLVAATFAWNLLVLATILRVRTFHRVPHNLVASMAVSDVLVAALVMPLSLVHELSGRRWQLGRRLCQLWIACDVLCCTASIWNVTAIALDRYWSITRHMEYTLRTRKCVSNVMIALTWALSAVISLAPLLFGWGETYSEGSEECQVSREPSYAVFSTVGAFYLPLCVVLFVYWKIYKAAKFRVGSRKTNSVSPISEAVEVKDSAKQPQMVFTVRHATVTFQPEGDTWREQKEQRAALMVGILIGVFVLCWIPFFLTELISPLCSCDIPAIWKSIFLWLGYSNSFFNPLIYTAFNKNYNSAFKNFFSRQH

For the molecule `COc1cccc2c1C(NC1=Nc3ccc(Br)cc3CO1)CO2` (racemic) [Example 54, rac-(6-Bromo-4H-benzo[d][1,3]oxazin-2-yl)-(4-methoxy-2,3-dihydro-benzofuran-3-yl)-amine], the melting point came to 132.5 °C. The pKi in series [1] (setting [2]) is 6.90.
With `COc1cccc2c1C(NC1=Nc3ccc(Br)cc3CO1)CC2` (racemic) [Example 74, rac-(6-Bromo-4H-benzo[d][1,3]oxazin-2-yl)-(7-methoxy-indan-1-yl)-amine], the melting point was 151 °C. Further, the pKi in series [1] (setting [2]) was 7.86.
`Cc1nnc(Nc2ccc3c(c2)COC(NC2CCc4cc(F)ccc42)=N3)o1` (racemic) [Example 106, rac-N^2-(5-Fluoro-indan-1-yl)-N^6-(5-methyl-[1,3,4]oxadiazol-2-yl)-4H-benzo[d][1,3]oxazine-2,6-diamine] yielded a melting point of 121 °C. Besides, the pKi in series [1] (setting [2]) was 8.53.
Molecule `COc1cccc2c1C(NC1=Nc3ccc(Nc4nnc(C)o4)cc3CO1)CO2` (racemic) [Example 107, rac-N^2-(4-Methoxy-2,3-dihydro-benzofuran-3-yl)-N^6-(5-methyl-[1,3,4]oxadiazol-2-yl)-4H-benzo[d][1,3]oxazine-2,6-diamine] gave a melting point of 191 °C. Further, the pKi in series [1] (setting [2]) is 8.00.
`COc1cccc2c1C(NC1=Nc3ccc(Nc4nnc(C5CC5)o4)cc3CO1)CC2` (racemic) [Example 111, rac-N^6-(5-Cyclopropyl-[1,3,4]oxadiazol-2-yl)-N^2-(7-methoxy-indan-1-yl)-4H-benzo[d][1,3]oxazine-2,6-diamine] displayed a melting point of 204 °C. Further, in series [1] (setting [2]), the pKi is 8.78.
`COc1cccc2c1C(NC1=Nc3ccc(Nc4nnc(C(F)(F)F)o4)cc3CO1)CC2` (racemic) [Example 144, rac-N^2-(7-Methoxy-indan-1-yl)-N^6-(5-trifluoromethyl-[1,3,4]oxadiazol-2-yl)-4H-benzo[d][1,3]oxazine-2,6-diamine] registered a melting point of 173 °C. Further, in series [1] (setting [2]), the pKi is 8.07.
As to `COc1cccc2c1C(NC1=Nc3ccc(Nc4nnc(C(F)(F)F)o4)cc3CO1)CO2` (racemic) [Example 145, rac-N^2-(4-Methoxy-2,3-dihydro-benzofuran-3-yl)-N^6-(5-trifluoromethyl-[1,3,4]oxadiazol-2-yl)-4H-benzo[d][1,3]oxazine-2,6-diamine], the melting point is 212 °C. Besides, in series [1] (setting [2]), the pKi is 7.40.
In turn, `Fc1ccc2c(c1)CCC2NC1=Nc2ccc(Nc3nnc(C(F)(F)F)o3)cc2CO1` (racemic) [Example 148, rac-N^2-(5-Fluoro-indan-1-yl)-N^6-(5-trifluoromethyl-[1,3,4]oxadiazol-2-yl)-4H-benzo[d][1,3]oxazine-2,6-diamine] registered a melting point of 142 °C. In addition, the pKi in series [1] (setting [2]) was 7.85.
`Brc1ccc2c(c1)COC(N[C@@H]1CCc3ccccc31)=N2` [Example 32, (6-Bromo-4H-benzo[d][1,3]oxazin-2-yl)-(R)-indan-1-yl-amine] yielded a melting point of 123 °C. Further, the pKi in series [1] (setting [2]) was 7.60.
`COc1cccc2c1C(NC1=Nc3ccc(Nc4nnc(C)o4)cc3CO1)CC2` (stereo not drawn) [Example 101, N^2-(7-Methoxy-indan-1-yl)-N^6-(5-methyl-[1,3,4]oxadiazol-2-yl)-4H-benzo[d][1,3]oxazine-2,6-diamine]: the melting point worked out at 162 °C. In series [1] (setting [2]), the pKi was 8.62.
The like results for `Cc1nnc(Nc2ccc3c(c2)COC(N[C@@H]2CCc4ccccc42)=N3)o1` [Example 118, N^2—(R)-Indan-1-yl-N^6-(5-methyl-[1,3,4]oxadiazol-2-yl)-4H-benzo[d][1,3]oxazine-2,6-diamine] were, in that order, 137 °C and 8.85.
Turning to `N=C(NO)c1ccc2c(c1)COC(N[C@@H]1CCc3ccccc31)=N2` [Example 130, N-Hydroxy-2-((R)-indan-1-ylamino)-4H-benzo[d][1,3]oxazine-6-carboxamidine], the melting point is 206 °C. Further, the pKi in series [1] (setting [2]) was 7.93.
As for `Cc1nc(-c2ccc3c(c2)COC(N[C@@H]2CCc4ccccc42)=N3)no1` [Example 133, (R)-Indan-1-yl-[6-(5-methyl-[1,2,4]oxadiazol-3-yl)-4H-benzo[d][1,3]oxazin-2-yl]-amine], the melting point was determined as 138 °C. The pKi in series [1] (setting [2]) is 7.12.
For `CN(C)S(=O)(=O)Nc1ccc2c(c1)COC(Nc1cccc(C3CC3)c1)=N2` [Example 135, N′-{2-[(3-cyclopropylphenyl)amino]-4H-benzo[d][1,3]oxazin-6-yl}-N,N-dimethylsulfamide], in series [1] (setting [2]), the pKi was 7.14.
As to `c1ccc(CNc2ccc3c(c2)COC(Nc2cccc(C4CC4)c2)=N3)cc1` [Example 136, N^6-Benzyl-N^2-(3-cyclopropyl-phenyl)-4H-benzo[d][1,3]oxazine-2,6-diamine], the pKi in series [1] (setting [2]) is 7.21.
Regarding `CC(C)N1CCC(NC(=O)Nc2ccc3c(c2)COC(Nc2cccc(C4CC4)c2)=N3)CC1` [Example 137, 1-[2-(3-Cyclopropyl-phenylamino)-4H-benzo[d][1,3]oxazin-6-yl]-3-(1-isopropyl-piperidin-4-yl)-urea], in series [1] (setting [2]), the pKi is 8.27.
As for `FC(F)(F)c1nnc(Nc2ccc3c(c2)COC(N[C@@H]2CCc4ccccc42)=N3)o1` [Example 138, N^2—(R)-Indan-1-yl-N^6-(5-trifluoromethyl-[1,3,4]oxadiazol-2-yl)-4H-benzo[d][1,3]oxazine-2,6-diamine], the melting point was 155 °C. In addition, the pKi in series [1] (setting [2]) is 8.06.
In the case of `CC(C)NC(=O)Nc1ccc2c(c1)COC(Nc1cccc3c1OC(C)(C)C3)=N2` [Example 139, 1-[2-(2,2-Dimethyl-2,3-dihydro-benzofuran-7-ylamino)-4H-benzo[d][1,3]oxazin-6-yl]-isopropyl-urea], in series [1] (setting [2]), the pKi is 6.62.
`C(=C\c1ccc2c(c1)COC(N[C@@H]1CCc3ccccc31)=N2)/c1ccccc1` [Example 140, (R)-Indan-1-yl-[6-((E)-styryl)-4H-benzo[d][1,3]oxazin-2-yl]-amine] returned a melting point of 162 °C. Further, in series [1] (setting [2]), the pKi was 7.75.
For `C(=C\c1ccc2c(c1)COC(N[C@@H]1CCc3ccccc31)=N2)/c1cccnc1` [Example 143, (R)-Indan-1-yl-[6-((E)-2-pyridin-3-yl-vinyl)-4H-benzo[d][1,3]oxazin-2-yl]-amine], the melting point turned out to be 132 °C. The pKi in series [1] (setting [2]) is 8.12.
Consider `COCC1CN(CC(=O)Nc2ccc3c(c2)COC(NC2CCc4cccc(OC)c42)=N3)CCN1C` (stereo not drawn) [Example 146, N-[2-(7-Methoxy-indan-1-ylamino)-4H-benzo[d][1,3]oxazin-6-yl]-2-(3-methoxymethyl-4-methyl-piperazin-1-yl)-acetamide], for which the pKi in series [1] (setting [2]) is 8.43.
With `COCC1CN(CC(=O)Nc2ccc3c(c2)COC(N[C@@H]2CCc4ccccc42)=N3)CCN1C` (stereo partly drawn) [Example 147, N-[2-((R)-Indan-1-ylamino)-4H-benzo[d][1,3]oxazin-6-yl]-2-(3-methoxymethyl-4-methyl-piperazin-1-yl)-acetamide], the pKi in series [1] (setting [2]) was 8.45.
Consider `O=S(=O)(Nc1ccc2c(c1)COC(Nc1cccc(C3CC3)c1)=N2)C1CC1` [Example 149, Cyclopropanesulfonic acid [2-(3-cyclopropyl-phenylamino)-4H-benzo[d][1,3]oxazin-6-yl]-amide], for which, in series [1] (setting [2]), the pKi is 6.86.
In the case of `O=S(=O)(Nc1ccc2c(c1)COC(Nc1cccc(C3CC3)c1)=N2)c1ccccc1` [Example 150, N-[2-(3-Cyclopropyl-phenylamino)-4H-benzo[d][1,3]oxazin-6-yl]-benzenesulfonamide], in series [1] (setting [2]), the pKi is 6.52.
For `CC(C)NC(=O)Nc1ccc2c(c1)COC(Nc1cccc(C3CC3)c1)=N2` [Example 151, 1-[2-(3-Cyclopropyl-phenylamino)-4H-benzo[d][1,3]oxazin-6-yl]-3-isopropyl-urea], the pKi in series [1] (setting [2]) was 6.94.
With `c1ccc2c(c1)CC[C@H]2NC1=Nc2ccc(C3CC3)cc2CO1` [Example 152, (6-Cyclopropyl-4H-benzo[d][1,3]oxazin-2-yl)-(R)-indan-1-yl-amine], the pKi in series [1] (setting [2]) was 7.56.
As for `Nc1ccc2c(c1)COC(NC1CCCCCCC1)=N2` [Example 153, N^2-Cyclooctyl-4H-benzo[d][1,3]oxazine-2,6-diamine], the pKi in series [1] (setting [2]) was 7.93.
For `CC(C)NC(=O)Nc1ccc2c(c1)COC(NC1CCCCCC1)=N2` [Example 154, 1-(2-Cycloheptylamino-4H-benzo[d][1,3]oxazin-6-yl)-3-isopropyl-urea], the pKi in series [1] (setting [2]) is 8.73.
The same measure, in the same setting: then `O=C(Nc1ccc2c(c1)COC(NC1CCCCCCC1)=N2)C1CC1` [Example 155, Cyclopropanecarboxylic acid (2-cyclooctylamino-4H-benzo[d][1,3]oxazin-6-yl)-amide], with 8.89; and `CN1CCN(CC(=O)Nc2ccc3c(c2)COC(NC2CCCCCCC2)=N3)CC1` [Example 156, N-(2-Cyclooctylamino-4H-benzo[d][1,3]oxazin-6-yl)-2-(4-methyl-piperazin-1-yl)-acetamide], with 8.67.
Regarding `CN1C2COCC1CC(CC(=O)Nc1ccc3c(c1)COC(NC1CCc4ccccc41)=N3)C2` [Example 157, endo-N-[2-((R)-indan-1-ylamino)-4H-benzo[d][1,3]oxazin-6-yl]-2-(9-methyl-3-oxa-9-aza-bicyclo[3.3.1]non-7-yl)-acetamide], the pKi in series [1] was 8.53.
Consider `CN1C2COCC1CN(CC(=O)Nc1ccc3c(c1)COC(N[C@@H]1CCc4ccccc41)=N3)C2` [Example 159, N-[2-((R)-Indan-1-ylamino)-4H-benzo[d][1,3]oxazin-6-yl]-2-(9-methyl-3-oxa-7,9-diaza-bicyclo[3.3.1]non-7-yl)-acetamide], for which, in series [1], the pKi was 7.72.

As usually defined, the pKi is the Ki on a negative log10 scale, so that one unit is a factor of ten. A word on the melting point: it is the temperature of the solid-liquid transition.
